Structures can show the parent of a compound that is named as a salt.

T1 sequence (P05193 21-381): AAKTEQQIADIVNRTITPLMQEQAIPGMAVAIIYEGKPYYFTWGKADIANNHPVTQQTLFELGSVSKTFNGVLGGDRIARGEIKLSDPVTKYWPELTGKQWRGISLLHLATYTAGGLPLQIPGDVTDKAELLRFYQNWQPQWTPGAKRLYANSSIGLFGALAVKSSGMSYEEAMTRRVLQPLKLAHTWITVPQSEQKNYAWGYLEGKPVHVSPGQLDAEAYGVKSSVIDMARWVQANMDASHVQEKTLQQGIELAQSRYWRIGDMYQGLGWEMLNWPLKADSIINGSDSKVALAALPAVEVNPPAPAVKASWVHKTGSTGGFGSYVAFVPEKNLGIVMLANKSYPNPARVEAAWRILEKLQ

For the first experiment, the system named is Citrobacter freundii. Nature of the experiment: MIC in vitro of a 1:4 combination of ceftriaxone with a compound of formula I (test D). In kind it is cell-based. The following applies: 1:4 combination of ceftriaxone with the compound. The procedure:
D. Determination of the β-lactamase-inhibiting activity by combination of a compound of general formula I with ceftriaxone
The minimum inhibitory concentration in vitro (MIC in μg/ml) of a 1:4 combination of ceftriaxone with a compound of formula I against Citrobacter freundii is measured and compiled in Table 2 hereinafter.
Consider `CCN(CC)CC.Nc1nc(C(N)C(=O)N2CC[C@@H]3[C@H]2C(=O)N3S(=O)(=O)O)cs1` (mixture of isomers) [6(r), (1S,5R)-2-[DL-2-(2-Amino-4-thiazolyl)glycyl] -7-oxo-2,6-diazabicyclo[3.2.0]heptane-6-sulphonic acid triethylamine salt], for which the “MIC” value is 2 µg/mL. With `CC(=O)N/C(=C\c1ccccc1)C(=O)N1CC[C@@H]2[C@H]1C(=O)N2S(=O)(=O)[O-].[Na+]` [5(f), (1S,5R)-2-[(Z)-3-α-Acetamidocinnamoyl]-7-oxo-2,6-diazabicyclo[3.2.0]heptane-6-sulphonic acid sodium salt], the “MIC” value is 16 µg/mL. Same read-out and setting: as for `CSCC[C@@H](NC(=O)c1ccccc1)C(=O)N1CC[C@@H]2[C@H]1C(=O)N2S(=O)(=O)O.[Na]` [5(h), (1S,5R)-2-[(R,S)-2-Benzamido-4-(methylthio)butyryl]-7-oxo-2,6-diazabicyclo[3.2.0]heptane-6-sulphonic acid sodium salt], the figure is 4 µg/mL; as for `O=C([C@H](O)c1ccccc1)N1CC[C@@H]2[C@H]1C(=O)N2S(=O)(=O)[O-].[Na+]` [6(k), (1S,5R)-2-[(R)-α-Hydroxyphenylacetyl]-7-oxo-2,6-diazabicyclo[3.4.0]heptane-6-sulphonic acid sodium salt (1:1)], 8 µg/mL; as for `CCN(CC)CC.O=C([C@@H](O)c1ccccc1)N1CC[C@@H]2[C@H]1C(=O)N2S(=O)(=O)O` [6(l), (1S,5R)-2-[(S)-α-Hydroxyphenylacetyl]-7-oxo-2,6-diazabicyclo[3.2.0]heptane-6-sulphonic triethylamine salt (1:1)], 8 µg/mL. `COC(=O)NN1CC[C@@H]2[C@H]1C(=O)N2S(=O)(=O)[O-].[Na+]` [Example 18, Methyl (1S,5R)-7-oxo-6-sulpho-2,6-diazabicyclo[3.2.0]heptane-2-carbamate sodium salt]: the “MIC” value was determined as 1 µg/mL. On to “(1S,5R)-(E)-3-Phenyl-acryloyl-2,6-diazabicyclo[3.2.0]heptane-6-sulphonic acid sodium salt [11(a)]”, for which the minimal inhibitory concentration (MIC) was 8 µg/mL.

The same experiment, now with this note: ceftriaxone alone (control), read-out: MIC.
With `CO/N=C(\C(=O)N[C@@H]1C(=O)N2C(C(=O)O)=C(CSc3nc(=O)c(=O)[nH]n3C)CS[C@H]12)c1csc(N)n1` [Ceftriaxone, ceftriaxone, reference compound], the MIC turned out to be 128 µg/mL.

Another experiment addresses T1, β-lactamase (Citrobacter freundii, UniProt P05193).
T1 construct: Various β-lactamases can be isolated from penicillin- or cephalosporin-resistant bacterial strains such as; endogenous in cells; host or cells: Citrobacter freundii 1203 (enzyme purified from the crude cell extract, after ampicillin induction when necessary)
Put plainly: biochemical.
Conditions: not given
Here is the method:
A. Isolation of the β-lactamases
Various β-lactamases can be isolated from penicillin- or cephalosporin-resistant bacterial strains such as Klebsiella pneumoniae NCTC 418, Proteus vulgaris 1028, Bacillus licheniformis 749/C, Escherichia coli SN01 and Citrobacter freundii 1203. For this purpose, the corresponding strains are cultivated in Tryptic Soy Broth (Difco) and harvested by centrifugation in the last logarithmic growth phase (when necessary 50-100 mg/l of ampicillin are added to the medium towards the end of the log-phase in order to induce the β-lactamase). The thus-obtained bacterial mass is treated with 20 mM Tris-HCl buffer (pH 7.0); the cells are broken open with a French press while cooling. The mixture is centrifuged (20,000 r/min.) for 20-30 minutes and a clear crude extract is obtained.
B. Determination of the β-lactamase activity
The determination of the activity of the isolated β-lactamases can be carried out according to the method of O'Callaghan, C. H. et al. [Antimicr. Ag. Chemother., 1, 283-288 (1972)] using the chromogenic cephalosporin nitrocefin (87/312 from Glaxo). The requisite test batch contains per ml of water: 50 mM phosphate buffer (pH 7.0), 0.1 mM nitrocefin and sufficient enzyme (β-lactamase) to achieve a ΔA/min. of about 0.1. The cleavage of the substrate, which is accompanied by a change in colour, is effected at 37° C. and is followed quantitatively at 482 nm using a spectral photometer.
C. Determination of the β-lactamase-inhibiting activity of the compounds of general formula I
The above-described cleavage of the chromogenic substrate by β-lactamases (test B.) can be inhibited by the addition of compounds of general formula I (inhibitors). […] As a measurement for the affinity of the particular tested inhibitor to the β-lactamase, which is a measurement of the strength of the inhibitor, there serves that concentration which inhibits by 50% (IC 50 in nM) the cleavage of the substrate (nitrocefin) effected under the above test conditions (test B) in the absence of an inhibitor. […] The determination of the IC50 was effected by means of a graph.
(Test organism: Citrobacter freundii)
Turning to `O=C(NCC(=O)N1CC[C@@H]2[C@H]1C(=O)N2S(=O)(=O)O)OCc1ccccc1` [4(g), Benzyl[[[(1S,5R)-7-oxo-6-sulpho-2,6-diazabicyclo[3.2.0]-hept-2-yl]carbonyl]methyl]carbamate], the IC50 was 390 nM.

In the case of `O=C(NC1CCC1)N1CC[C@@H]2[C@H]1C(=O)N2S(=O)(=O)O` [17(h), (1S,5R)-2-Cyclobutylcarbamoyl)-7-oxo-2,6-diazabicyclo[3.2.0]heptane-6-sulphonic acid sodium salt], the IC50 came out at 145 nM. Consider `O=C(NC1CC1)N1CC[C@@H]2[C@H]1C(=O)N2S(=O)(=O)O` [17(i), (1S,5R)-2-Cyclopropylcarbamoyl)-7-oxo-2,6-diazabicyclo[3.2.0]heptane-6-sulphonic acid sodium salt], for which the IC50 turned out to be 245 nM.

On to `O=C(NCc1cccs1)N1CC[C@@H]2[C@H]1C(=O)N2S(=O)(=O)O` [17(p), (1S,5R)-2-(2-Thien-2-ylmethylcarbamoyl)-7-oxo-2,6-diazabicyclo[3.2.0]heptane-6-sulphonic acid sodium salt], for which the IC50 worked out at 383 nM.

`O=C1SCC[C@@H]1NC(=O)N1CC[C@@H]2[C@H]1C(=O)N2S(=O)(=O)O` [17(t), (1S,5R)-7-Oxo-2-(S)-(2-oxo-3-tetrahydrothienyl-carbamoyl)-2,6-diazabicyclo[3.2.0]heptane-6-sulphonic acid sodium salt] yielded an IC50 of 53 nM.

The experiment is the same for the next values; noted with them: IC 50 nM, isolated β-lactamase of Citrobacter freundii; substrate nitrocefin 0.1 mM; 15 minutes pre-incubation with inhibitor; 37° C., pH 7.0.
The compound `O=C(CNc1ccc2c(C(F)(F)F)cc(=O)oc2c1)N1CC[C@@H]2[C@H]1C(=O)N2S(=O)(=O)O` [5(n), (1S,5R)-2-[N-[2-Oxo-4-(trifluoromethyl)-2H-1-benzopyran-7-yl]glycyl]-7-oxo-2,6-diazabicyclo[3.2.0]heptane-6-sulphonic acid sodium salt] showed an IC50 of 67 nM. The same measure, in the same setting: as for `O=C(/C=C/c1ccc(O)cc1)N1CC[C@@H]2[C@H]1C(=O)N2S(=O)(=O)O` [6(t), (1S,5R)-(E)-2-[3-(4-Hydroxy-phenyl)acryloyl]-7-oxo-2,6-diazabicyclo[3.2.0]heptane-6-sulphonic acid sodium salt], the figure is 12 nM.

As to `Nc1nnc(SCC(=O)Nc2nnc(SCC(=O)N3CC[C@@H]4[C@H]3C(=O)N4S(=O)(=O)O)s2)s1` [6(w), (1S,5R)-2-[5-(5-Amino-1,3,4-thiadiazol-2-ylsulfanylacetylamino)-1,3,4-thiadiazol-2-ylsulfanylacetyl]-7-oxo-2,6-diazabicyclo[3.2.0]heptane-6-sulfonic acid sodium salt], the IC50 stood at 22 nM. In turn, `COC(=O)/C=C1\CN(C(=O)OCc2ccccc2)[C@@H]2C(=O)N(S(=O)(=O)O)[C@H]12` [14(a), (1S,5R)-(E)-4-Methoxycarbonylmethylene-7-oxo-6-sulpho-2,6-diazabicyclo[3.2.0]heptane-2-carboxylic acid benzyl ester sodium salt] had an IC50 of 32 nM. The same measure, in the same setting: as for `NC(=O)/C=C1\CN(C(=O)OCc2ccccc2)[C@@H]2C(=O)N(S(=O)(=O)O)[C@H]12` [14(b), (1S,5R)(E)-2-Benzyloxycarbonyl-4-carbamoylmethylene-7-oxo-2,6-diazabicyclo[3.2.0]heptane-6-sulphonic acid sodium salt], the figure is 65 nM; as for `NC(=O)/C=C1/CN(C(=O)OCc2ccccc2)[C@@H]2C(=O)N(S(=O)(=O)O)[C@H]12` [14(c), (1S,5R)(Z)-2-Benzyloxycarbonyl-4-carbamoylmethylene-7-oxo-2,6-diazabicyclo[3.2.0]heptane-6-sulphonic acid sodium salt], 826 nM; as for `O=C(OCc1ccccc1)N1C[C@H](F)[C@@H]2[C@H]1C(=O)N2S(=O)(=O)O` [16(a), (1S,4S,5S)-4-Fluoro-7-oxo-6-sulpho-2,6-diazabicyclo[3.2.0]heptane-2-carboxylic acid benzyl ester sodium salt], 14 nM. Same read-out and setting: as for `O=C(OCc1ccccc1)N1C[C@@H](Cl)[C@@H]2[C@H]1C(=O)N2S(=O)(=O)O` [16(b), (1S,4R,5S)-2-Benzyloxycarbonyl-4-chloro-7-oxo-2,6-diazabicyclo[3.2.0]heptane-6-sulphonic acid sodium salt], the figure is 334 nM. The same measure, in the same setting: as for `O=C(Nc1cccc(O)c1)N1CC[C@@H]2[C@H]1C(=O)N2S(=O)(=O)O` [17(s), (1S,5R)-2-(3-Hydroxyphenylcarbamoyl)-7-oxo-2,6-diazabicyclo[3.2.0]heptane-6-sulphonic acid sodium salt], the figure is 38 nM; as for `O=C(Nc1ccc(O)cc1)N1CC[C@@H]2[C@H]1C(=O)N2S(=O)(=O)O` [17(w), (1S,5R)-2-(4-Hydroxyphenylcarbamoyl)-7-oxo-2,6-diazabicyclo[3.2.0]heptane-6-sulphonic acid sodium salt], 109 nM. The compound `O=C(OCc1ccccc1)N1C[C@@H](Cl)[C@@H]2[C@H]1C(=O)N2S(=O)(=O)O` [Example 15, (1S,4R,5S)-2-Benzyloxycarbonyl-4-chloro-7-oxo-2,6-diazabicyclo[3.2.0]heptane-6-sulphonic acid sodium salt] yielded an IC50 of 630 nM.

`Cn1nnnc1S[C@@H]1CN(C(=O)OCc2ccccc2)[C@@H]2C(=O)N(S(=O)(=O)O)[C@@H]21` [Example 22, (1S,4R,5S)-2-Benzyloxycarbonyl-4-(1-methyl-1H-tetrazol-5-yl-thio)-7-oxo-2,6-diazabicyclo[3.2.0]heptane-6-sulphonic acid sodium salt] had an IC50 of 220 nM.

The same experiment, now with this note: isolated β-lactamase of Citrobacter freundii; substrate nitrocefin 0.1 mM; 15 minutes pre-incubation with inhibitor; 37° C., pH 7.0; read-out: IC 50 nM.
`O=C(c1cc2ccccc2[nH]1)N1CC[C@@H]2[C@H]1C(=O)N2S(=O)(=O)O` (racemic) [6(j)]: the IC50 amounted to 280 nM. As to `CC(C)(C)OC(=O)N1CC[C@@H]2[C@H]1C(=O)N2S(=O)(=O)O` [1(b), sodium salt], the IC50 amounted to 225 nM.

Still in this experiment, the particulars now being: read-out: IC 50 nM; isolated β-lactamase of Citrobacter freundii; substrate nitrocefin 0.1 mM; 15 minutes pre-incubation with inhibitor; 37° C., pH 7.0.
Turning to `O=C1[C@H](NC(=O)N2CC[C@@H]3[C@H]2C(=O)N3S(=O)(=O)O)CCN1O` [17(r), sodium salt], the IC50 was determined as 490 nM.

Values taken from patent publication US6566355B1 (Hoffmann-La Roche Inc., priority 1991, dated 2003).
